Measurements: patent publication US8791050B2, “Herbicidal compositions” (priority 1998, dated 2014)

Assays:
Type in all cases: in vivo
[1] = system: Amaranthus retroflexus (AMARE); assay: Herbicidal effect in rice, field trial, Amaranthus retroflexus
Method: (§1) The herbicidal efficacy of the active compounds or active compound mixtures was scored visually using the treated plots in comparison to untreated control plots. The damage and development of all above-ground parts of the plants were recorded. Scoring was carried out using a percentage scale (100% effect=all plants killed; 50% effect=50% of the plants and the green parts of the plants killed; 0% effect=no noticeable effect=like control plot). The scores of in each case 4 plots were averaged.
(§2) If the observed activity values already exceed the formal sum of the values for the trials with the individual applications, they also exceed the expected value according to Colby which is calculated using the following formula and which is likewise considered to be an indication of synergism (cf. S. R. Colby; in Weeds 15 (1967) pp. 20 to 22): E=A+B−(A·B/100)
(§3) Crop plants were grown outdoors on plots under natural outdoor conditions, and seeds or rhizome pieces of typical harmful plants were laid out or the natural weed growth was utilized. Treatment with the compositions according to the invention was carried out after the harmful plants had emerged and the crop plants were, generally, at the 2- to 4-leaf stage; in some cases (as stated), application of individual active compounds or active compound combinations was carried out pre-emergence (cf. Example 1) or as a sequential treatment partly pre-emergence and/or post-emergence.
(§4) After the application, for example 2, 4, 6 and 8 weeks after the application, the effect of the preparations was scored visually by comparison with untreated controls (cf. scoring in Example 1). In the field trial as well, the compositions according to the invention have synergistic herbicidal activity against a broad spectrum of economically important weed grasses and broad-leaved weeds. […] Moreover, the effects in essential phases of the scoring period were above the expected values according to Colby (cf. scoring in Example 1), also indicating synergism. […]

rice = assay: Selectivity: damage to rice, field trial
Method: The damage and development of all above-ground parts of the plants were recorded. […] The scores of in each case 4 plots were averaged.
Crop plants were grown outdoors on plots under natural outdoor conditions, and seeds or rhizome pieces of typical harmful plants were laid out or the natural weed growth was utilized.

[2] = system: Echinochloa colona (ECHCO); assay: Herbicidal effect in rice, field trial, Echinochloa colona; conditions: post-emergence 2-4-leaf stage
Method: as §1, §2, §3
After the application, for example 2, 4, 6 and 8 weeks after the application, the effect of the preparations was scored visually by comparison with untreated controls (cf. scoring in Example 1). In the field trial as well, the compositions according to the invention have synergistic herbicidal activity against a broad spectrum of economically important weed grasses and broad-leaved weeds. […] Moreover, the effects in essential phases of the scoring period were above the expected values according to Colby (cf. scoring in Example 1), also indicating synergism. In contrast, the crop plants were, as a consequence of the treatments with the herbicidal compositions, damaged only to a small degree, if at all.

Cyperus iria (CYPIR) = assay: Herbicidal effect in rice, field trial, Cyperus iria; conditions: Table 14 field trial, post-emergence 3-leaf stage, scoring 42 days after application
Method: as §1, §2, §3, §4

[3] = system: Sesbania exaltata (SEBEX); assay: Herbicidal effect in rice, field trial, Sesbania exaltata; conditions: Table 1 field trial, post-emergence, scoring 7 days after application, 45 g of AS/ha
Method: as §1, §2
(§5) Crop plants were grown outdoors on plots under natural outdoor conditions, and seeds or rhizome pieces of typical harmful plants were laid out or the natural weed growth was utilized. […]
(§6) After the application, for example 2, 4, 6 and 8 weeks after the application, the effect of the preparations was scored visually by comparison with untreated controls (cf. scoring in Example 1). […]

[4] = system: Cyperus difformis (CYPDI); assay: Herbicidal effect in rice, field trial, Cyperus difformis; conditions: Table 11 field trial, post-emergence 2-4-leaf stage, scoring 28 days after application, 45 g of AS/ha
Method: as §1, §2, §5, §6

Ipomoea spp (IPOSS) = assay: Herbicidal effect in rice, field trial, Ipomoea spp; conditions: Table 11 field trial, post-emergence 2-4-leaf stage, scoring 28 days after application, 45 g of AS/ha
Method: as §1, §2, §5, §6

[5] = system: Ipomea hederaceae (IPOHE); assay: Herbicidal effect in rice, field trial, Ipomea hederaceae; conditions: Table 8 field trial, post-emergence 2-4-leaf stage, scoring 28 days after application, 30 g of AS/ha
Method: as §1, §2, §5, §6

Eleusine indica (ELEIN) = assay: Herbicidal effect in rice, field trial, Eleusine indica; conditions: Table 4 field trial, post-emergence 2-4-leaf stage, scoring 28 days after application
Method: as §1, §2, §3, §4

[6] = Table 9 field trial, post-emergence 2-4-leaf stage, scoring 28 days after application, 50 g of AS/ha

O=C(O)COc1nc(Cl)c(Cl)cc1Cl [(B3.1), triclopyr]
Herbicidal effect (in %) against AMARE [1, 6]: 66% | Damage (in %) to rice (rice; [6]): 18%

CCS(=O)(=O)Oc1ccc2c(c1)C(C)(C)CO2 [(B3.2), benfuresate]
Damage (in %) to rice (rice; in vivo): 0% | Herbicidal effect (in %) against ECHCO ([2]; Table 2 field trial, scoring 21 days after application, 400 g of AS/ha): 0%

CC1(C)CON(Cc2ccccc2Cl)C1=O [(B4.2), clomazone]
Damage (in %) to rice (rice; in vivo): 0% | Herbicidal effect (in %) against CYPIR (Cyperus iria (CYPIR); 300 g of AS/ha): 30%

COc1cc(OC)nc(Oc2cccc(Oc3nc(OC)cc(OC)n3)c2C(=O)[O-])n1.[Na+] [(B4.6), bispyribac-Na]
Herbicidal effect (%) against SEBEX [3]: 93% | Herbicidal effect (%) against AMARE ([1]; Table 1 field trial, post-emergence, scoring 7 days after application, 45 g of AS/ha): 93% | Herbicidal effect (in %) against CYPDI [4]: 75% | Herbicidal effect (in %) against IPOSS (Ipomoea spp (IPOSS)): 91%

CC(C)Oc1cc(-n2nc(C(C)(C)C)oc2=O)c(Cl)cc1Cl [(B4.8), oxadiazon]
Damage (in %) to rice (rice; in vivo): 0% | Herbicidal effect (in %) against CYPIR (Cyperus iria (CYPIR); 250 g of AS/ha): 75%

COc1cc(OC)nc(Oc2cccc(Oc3nc(OC)cc(OC)n3)c2C(=O)ON=C(c2ccccc2)c2ccccc2)n1 [(B4.25), pyribenzoxim]
Damage (in %) to rice (rice; Table 8 field trial, post-emergence 2-4-leaf stage, scoring 28 days after application, 30 g of AS/ha): 0% | Herbicidal effect (in %) against IPOHE [5]: 78%

CC1=C(c2ccccc2)C(=O)N(C(C)(C)c2cc(Cl)cc(Cl)c2)CO1 [(B4.26), oxaziclomefone]
Damage (in %) to rice (rice; Table 4 field trial, post-emergence 2-4-leaf stage, scoring 28 days after application, 30 g of AS/ha): 15% | Damage (in %) to rice (rice; Table 4 field trial, post-emergence 2-4-leaf stage, scoring 28 days after application, 60 g of AS/ha): 19% | Herbicidal effect (in %) against ELEIN (Eleusine indica (ELEIN); 30 g of AS/ha): 0% | Herbicidal effect (in %) against ELEIN (Eleusine indica (ELEIN); 60 g of AS/ha): 37%

oxadiargyl [(B4.9)]
Herbicidal effect (in %) against ECHCO ([2]; Table 3 field trial, scoring 28 days after application, 25 g of AS/ha): 33% | Herbicidal effect (in %) against ECHCO ([2]; Table 3 field trial, scoring 28 days after application, 50 g of AS/ha): 43% | Herbicidal effect (in %) against ECHCO ([2]; Table 3 field trial, scoring 28 days after application, 100 g of AS/ha): 48%
